In ChEMBL document CHEMBL1130671, “beta Gal(1-->S-4)beta GlcNac--OR: a galactosidase-stable substrate for alpha(1-->3)fucosyltransferase” (Bioorg Med Chem Lett, 1998):
Activity calls are given as the source filed them. The rule behind the calls is not given here.

Key:
[1] = species: Homo sapiens; test: Potency against purified human milk alpha(1,3/4) fucosyltransferase; IA inactive
[2] = species: Homo sapiens; test: Kinetic constant for purified human milk alpha(1,3/4) fucosyltransferase

Compound | Potency [1] | Km [2]
COC(=O)CCCCCCCCOC1OC(CO)C(OC2SC(CO)C(O)C(O)C2O)C(O)C1NC(C)=O (configuration not stated) | inactive | 
COC(=O)CCCCCCCCOC1OC(CO)C(SC2OC(CO)C(O)C(O)C2O)C(O)C1NC(C)=O (configuration not stated) |  | 230 µM
